For one assay, the system named is SD rats. In words: Glucose tolerance test for SD rats (Example 9). It is filed as in vivo, rat. The following applies: 100 mg/kg intraperitoneally 5 minutes before 2 g/kg oral glucose, 30 minutes after glucose, p<0.05 vs control. How it is done:
(§1) SD rats (4 weeks old; CLEA JAPAN) were forced to fast overnight, and 2 g/kg of glucose was orally administered. 100 mg/kg of 2-(pyridine-4-yl)ethyl thiobenzoate (LT-1 Z 0059519) had been intraperitoneally administered 5 minutes before the glucose administration. An appropriate amount of blood was taken 0 minute, 30 minutes, 60 minutes, and 120 minutes after the glucose administration, and used for the measurement of a blood glucose level and a concentration of plasma insulin.
(§2) For measuring the blood glucose level, a supernatant obtained by mixing blood and 0.33 mol/L perchloric acid (blood:0.33 mol/L perchloric acid=1:10) and centrifuging the mixture (3000×g, 10 minutes, 4° C.) was used. For measuring the concentration of plasma insulin, a supernatant obtained by centrifuging blood (3000×g, 10 minutes, 4° C.) was used. Further, Glucose C test Wako (Wako) was used in the measurement of the blood glucose level, and a rat insulin assay system (Amersham) was used in the measurement of the concentration of plasma insulin.
FIG. 1 illustrates a time course of the concentration of plasma insulin (unit=ng/mL) after the oral administration of glucose, and FIG. 2 illustrates a time course of the blood glucose level (unit=mg/dL) after the oral administration of glucose. […]

Assay [1] relates to mouse pancreatic β cell line MIN6. In words: Insulin secretion from mouse pancreatic β cell line MIN6, Part 1 (Example 8). It is filed as cell-based. The following applies: MIN6 cells, 20 minutes. The procedure: MIN6 cells (2×10^5 cells) were seeded on a 24-well plate, and cultured for 2 days in a DMEM containing 10% FCS. The medium was aspirated, and the cells were washed with KRB-HEPES (140 mmol/L NaCl, 3.6 mmol/L KC1, 0.5 mmol/L NaH2PO4, 0.5 mmol/L MgSO4, 1.5 mmol/L CaCl2, 10 mmol/L Hepes, 2 mmol/L NaHCO3, 0.1% BSA, pH7.4). After 2.8 mmol/L glucose-containing KRB-HEPES (1 ml) was added, the whole was incubated at 37° C. for 30-60 minutes in the presence of 5% CO2.
After the buffer was aspirated, one of the four compounds obtained by the screening in Example 7, i.e., 2-(pyridine-4-yl)ethyl thiobenzoate, in the form of a solution (0.5 ml) prepared by diluting the compound with 2.8 mmol/L or 16.8 mmol/L glucose-containing KRB-HEPES, was added, and the whole was incubated at 37° C. for 20 minutes in the presence of 5% CO2. A supernatant was used for measuring an amount of insulin secreted.
(§3) A commercially available insulin radioimmunoassay kit (Phadeseph insulin; Pharmacia Upjohn) was used for the measurement of the amount of insulin secreted.

In assay [2] the target is T1, polypeptide consisting of the amino acid sequence of SEQ ID NO: 2 (Homo sapiens, UniProt Q8TDV5).
T1 construct: expressed in transfected cells; host or cells: 293-EBNA cells, transient transfection with plasmid pEF-BOS-NA
T1 sequence (Q8TDV5 1-335): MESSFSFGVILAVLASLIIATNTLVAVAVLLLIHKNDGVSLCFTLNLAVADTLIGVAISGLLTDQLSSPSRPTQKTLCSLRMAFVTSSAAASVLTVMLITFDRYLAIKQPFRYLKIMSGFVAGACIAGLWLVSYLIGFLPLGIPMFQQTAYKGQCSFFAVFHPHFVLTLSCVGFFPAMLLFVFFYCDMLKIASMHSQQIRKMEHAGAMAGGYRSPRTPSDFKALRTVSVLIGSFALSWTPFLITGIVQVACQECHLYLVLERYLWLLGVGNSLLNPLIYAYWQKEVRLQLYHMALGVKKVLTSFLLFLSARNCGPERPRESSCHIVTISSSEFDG
In words: CRE-luciferase reporter screening in transfected 293-EBNA cells (Example 7). It is filed as cell-based. The following applies: 293-EBNA cells transfected with pEF-BOS-NA and pCRE-Luc; 5-6 hours incubation; read-out: EC50 value (increase of reporter activity). The procedure:
(§4) The pEF-BOS-NA plasmid used in Example 6 was also used in the present Example.
293-EBNA cells, (1×10^4 cells/well) were seeded on a 96-well plate coated with collagen, and cultured overnight in a Dulbecco modified Eagles' medium (DMEM) containing 10% fetal calf serum (FCS). Then, a transfection reagent (LIPOFECTAMINE 2000; GIBCO BRL) was used to transfect 0.01 ng of a plasmid pEF-BOS-NA or a plasmid pEF-BOS (negative control vector) and 5 ng of a pCRE-Luc vector (CLONTECH) to the cells. […] After the medium was aspirated, the cells were lysed with a cell lysing solution (cell lysis buffer LCβ; Toyo Ink Mfg.). A luciferase activity of the lysate was measured by a commercially available measuring kit (PicaGene Luminescent kit; Toyo Ink Mfg.) and a measuring apparatus (ML3000 microtiter plate luminometer; Dynatech Laboratories).
On the technique in general: A reporter such as luciferase makes a cellular process visible.

A further assay concerns GK (Goto-Kakizaki) rats. In words: Glucose tolerance test for GK rats, type II diabetes model (Example 9). The following applies: 100 mg/kg orally administered, 2 g/kg oral glucose, 30 and 60 minutes after glucose. It is filed as in vivo, rat. How it is done:
as §1, §2
Then, a glucose tolerance test for GK (Goto-Kakizaki) rats (type II diabetes models with incomplete insulin secretion; 7 weeks old; Charles River Japan) by one oral dose was carried out. […]

For assay [3], the system named is mouse pancreatic β cell line MIN6. In words: Insulin secretion from mouse pancreatic β cell line MIN6, Part 2 (Example 12). The assay is classed as cell-based. The settings on record: MIN6 cells, 16.8 mmol/L glucose, 30 minutes. How it is done: MIN6 cells (2.5×10^5 cells) were seeded on a 24-well plate coated with collagen, and cultured for 2 days in a DMEM containing 10% FCS (Cat. No. 11995-065; GIBCO BRL). The medium was aspirated, and 0.4 mL of a glucose-free DMEM containing 10% FCS (Cat. No. 11966-025; GIBCO BRL) was added. The whole was incubated at 37° C. for 2 hours in the presence of 5% CO2.
After the medium was aspirated, 0.5 mL of a solution of L-α-lysophosphatidylcholine oleoyl, the compound selected by the screening method in Example 10, diluted with 2.8 mmol/L or 16.8 mmol/L glucose-containing DMEM (Cat. No. 11966-025; GIBCO BRL) was added, and the whole was incubated at 37° C. for 30 minutes in the presence of 5% CO2. A supernatant was used for measuring an amount of insulin secreted.
as §3

For assay [4], the target named is T1, polypeptide consisting of the amino acid sequence of SEQ ID NO: 2. In words: CRE-luciferase reporter screening in transfected 293-EBNA cells (Example 10). The settings on record: 293-EBNA cells transfected with pEF-BOS-NA and pCRE-Luc; 6 hours; specific versus pEF-BOS control vector. It is filed as cell-based. The procedure:
as §4
293-EBNA cells (7×10^4 cells/well) were seeded on a 24-well plate coated with collagen, and cultured overnight in a Dulbecco modified Eagles' medium (DMEM) containing 1% fetal calf serum (FCS). Then, a transfection reagent (LIPOFECTAMINE 2000; GIBCO BRL) was used to transfect 0.1 ng of a plasmid pEF-BOS-NA or a plasmid pEF-BOS (negative control vector) and 20 ng of a pCRE-Luc vector (CLONTECH) to the cells. The transfected cells were further cultured for 18-20 hours, and then a test compound diluted with a medium containing 0.1% BSA was added, and the whole was incubated at 37° C. for 6 hours in the presence of 5% CO2. After the medium was aspirated, the cells were lysed with a cell lysing solution (cell lysis buffer LCβ; Toyo Ink Mfg.). A luciferase activity of the lysate was measured by a commercially available measuring kit (PicaGene Luminescence kit; Toyo Ink Mfg.) and a measuring apparatus (ML3000 microtiter plate luminometer; Dynatech Laboratories).
L-α-lysophosphatidylcholine oleoyl (L1881; SIGMA), a biocomponent, could be obtained.

The target is the same in assay [5]. In words: Intracellular cAMP amount in transfected 293-EBNA cells, enzymeimmunoassay (Example 11). The settings on record: 293-EBNA cells transfected with pEF-BOS-NA; 1 mmol/L IBMX; 30 minutes. It is filed as cell-based. How it is done: as §4
293-EBNA Cells (1×10^4 cells/well) were seeded on a 96-well plate coated with collagen, and cultured for 24 hours. Then, a transfection reagent (LIPOFECTAMINE 2000; GIBCO BRL) was used to transfect 3 ng of a plasmid pEF-BOS-NA or a plasmid pEF-BOS (negative control vector) to the cells. The transfected cells were further cultured for 20 hours, and the medium was aspirated. After 80 μL of 1 mmol/L IBMX (3-isobutyl-1-methylxanthine)/0.1% BSA/DMEM was added, the whole was incubated at 37° C. for 10 minutes in the presence of 5% CO2. Then, a test compound diluted with 20 μL of 1 mmol/L IBMX/0.1% BSA/DMEM was added, and the whole was incubated for 30 minutes. After the medium was aspirated, the resulting cells were used for the measurement of an amount of cAMP. A commercially available cAMP enzymeimmunoassay system (cyclic AMP kit; Nihon Schering) was used to measure the amount of cAMP.

On to `O=C(SCCc1ccncc1)c1ccccc1`, for which the “concentration of plasma insulin” value in the assay with SD rats is reported as “significant increase”. Moreover, the “increase of the blood glucose level by the glucose administration” value in the assay with SD rats and in the assay with GK (Goto-Kakizaki) rats was “significantly suppressed” throughout. Also, the “amount of insulin secreted” value in assay [1] (2.8 mmol/L glucose) was “did not cause an increase”; in assay [1] (16.8 mmol/L glucose), “caused an increase”. For the same compound, the EC50 (as a rule, the concentration at which the effect is half-maximal) in assay [2] is 3.2 µM.

Consider `CCCCCCCC/C=C\CCCCCCCC(=O)OC[C@@H](O)COP(=O)([O-])OCC[N+](C)(C)C` [L-α-lysophosphatidylcholine oleoyl], for which the “amount of insulin secreted” value in assay [3] is given as “caused an increase”. Besides, the “reporter activity (luciferase)” value in assay [4] was “increase of a reporter activity specifically in cells”. Further, in assay [5], the “amount of cAMP” value is “exhibited an increase of the amount of cAMP specifically in the cells”.

Values taken from patent publication US7662775B2 (Astellas Pharma Inc., priority 2000, dated 2010).
